Reference: patent US9757379B2, “Inhibition of HIF-2α heterodimerization with HIF1β (ARNT)” (The Board of Regents of the University of Texas System, priority 2012, dated 2017)
Like-named read-outs stand apart in the source and are kept apart here.

Tests used:
HIF-2α PAS-B = HIF-2α PAS-B (Homo sapiens, UniProt Q99814); assay: Isothermal titration calorimetry (ITC) on HIF-2α PAS-B;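 further: Wild-type protein (200 µM) titrated into 5-10 µM compound, heats of dilution from a compound-free titration subtracted, isotherms fit to a single-site model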
From the text: ITC, as described more fully below, introduces a wild-type HIF-2α PAS-B solution into a to-be-assayed compound solution using, for example, a VP-ITC instrument (MicroCal). After subtracting heats of dilution evolved from the titrating protein, e.g., wild-type HIF-2α PAS-B, into a compound-free buffer, data were fit to a single-site binding model with, for example, MicroCal Origin® software to determine complex affinities.
The following is a general procedure describing the ITC assay Thermodynamic parameters of small molecule binding are determined using a MicroCal VP-ITC calorimeter. Solutions of HIF-2α PAS-B are extensively dialyzed against buffer (50 mM Tris (pH 7.5), 20 mM NaCl and 5 mM beta-mercaptoethanol), which is subsequently used to prepare a matched compound solution by dilution from a 50 mM compound stock in 100% DMSO. […] Each isotherm is recorded by injecting 200 μM protein (syringe) into 5-10 μM solutions of compound (cell), accounting for dilution heats by subtracting data from a control titration of 200 μM protein into a matched buffer-DMSO solution. Thermograms are fit to a single site binding model to extract equilibrium binding parameters.

[1] = target: HIF-2α PAS-B*/ARNT PAS-B* heterodimer (Homo sapiens, UniProt Q99814, R247E); assay: AlphaScreen, HIF-2α PAS-B*/ARNT PAS-B* heterodimerization;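 further: GST-tagged HIF-2α PAS-B* and FLAG-tagged ARNT PAS-B* with glutathione donor and anti-FLAG acceptor beads, luminescence after 680 nm excitation, loss of signal indicating disrupted heterodimer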
From the text: (FIG. 8a) As shown in the cartoon schematic, interactions between GST-tagged HIF-2α (green) and FLAG-tagged ARNT (blue) PAS-B* domains recruit both donor beads (D), coated with glutathione, and acceptor beads (A), coated with anti-FLAG antibodies, to one another. Upon illumination with red (680 nm) light, donor beads will generate short-lived singlet oxygen (^1O2). Nearby (<200 nm) acceptor beads can react with ^1O2 to emit light at shorter wavelengths (top). Compounds that disrupt the complex correspondingly eliminate this signal (bottom). Compounds that non-specifically interfere with the AlphaScreen assay can be identified with a counterscreen in which the ARNT PAS-B* domain was simultaneously tagged with both the GST and FLAG tags. (FIG. 8b) The AlphaScreen signal (relative units; RU) reflecting protein-protein interactions between 25 (open triangles), 50 (open circles) or 100 (closed circles) nM HIF-2α PAS-B* increases with increasing concentrations of ARNT PAS-B*. At the highest ARNT PAS-B* concentrations, a decrease in signal reflects the hook effect. At these concentrations, protein binding to the acceptor beads has become saturated and free ARNT PAS-B* competes with the coated acceptor beads for the donor beads bound to HIF-2α PAS-B*. […] Assays were performed in triplicate and the error bars represent±SD.
Inhibition of heterodimerization of HIF-2α to HIF1β (ARNT) may be determined in an Amplified Luminescent Proximity Homogeneous Assay (AlphaScreen).
The AlphaScreen assay can be done according to the following procedures: • 1. Prepare cold binding buffer solution: 20 mM Tris-Cl (pH=7.5), 100 mM NaCl, 1 mM DTT, 0.02% Tween-20 (final concentration) and place on ice to keep temperature approximately 4° C. • 2. Prepare Protein Mix: To a 50 mL conical tube add 23 mL of cold buffer and 0.04 mL of both GST-HIF2α PASB* (100 μM) and ARNT-PASB*-Flag (100 μM). • 3. Distribute to 96 well plate: Add 60 μL of protein mix to each wells. • 4. Adding Compound: Dissolve compounds in DMSO to obtain a final concentration of 10 mM. Then create the appropriate dilutions for your particular compound in glass vials. Once all the dilutions are ready place 1 μL of compound in each well. • 5. Prepare Bead mix: In the dark room using green light only create a tube with 3.84 mL of cold buffer and 3 μL of GST Donor beads and Flag acceptor beads. • 6. Distribute Bead mix: Invert the tube a couple times before distributing 40 μL of mix to each well. • 7. Incubation: After adding beads wrap the plate in tin foil twice and remove the covered plate from dark room. Incubate the plate at room temperature while rocking gently for 4 hours. • 8. Read: After 4 hours place the uncovered plate in the plate reader. Make sure the room is relatively tree of white light when placing the plate in the machine. It is ok to have the green light on if needed. • 9. […] Flag acceptor beads should be aliquoted into small opaque tubes (20-50 μl per tube) upon arrival from the manufacturer. Place both sets of beads in 4° C. storage when not in use. • 11. Avoid expose beads to white light. • 12. Pipette beads up and down several times before adding to a tube of cold buffer solution. • 13. Amount of Beads used for Bead mix may vary from batch to batch.

VEGF = VEGF protein secretion by ELISA, 786-O cells; format: cell-based, human; conditions: about 18 hours, 0.00655-20 μM
Method: VEGF protein secretion was measured by ELISA following incubation of cultured 786-O cells for about eighteen (18) hours with Compund (1) (FIG. 19a) or with Compound (47) (FIG. 19b).

GST-ARNT-PAS-B*-FLAG = GST-ARNT-PAS-B*-FLAG (Homo sapiens, UniProt P27540, E362R); assay: AlphaScreen control reaction with doubly tagged protein; format: biochemical; conditions: single doubly tagged protein
Sequence of GST-ARNT-PAS-B*-FLAG (P27540 355-470 E362R): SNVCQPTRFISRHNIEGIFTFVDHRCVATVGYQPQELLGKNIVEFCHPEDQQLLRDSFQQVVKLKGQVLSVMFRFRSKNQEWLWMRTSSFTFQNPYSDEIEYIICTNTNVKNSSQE
From the text: Upon illumination with red (680 nm) light, donor beads will generate short-lived singlet oxygen (^1O2). Nearby (<200 nm) acceptor beads can react with ^1O2 to emit light at shorter wavelengths (top). Compounds that disrupt the complex correspondingly eliminate this signal (bottom). Compounds that non-specifically interfere with the AlphaScreen assay can be identified with a counterscreen in which the ARNT PAS-B* domain was simultaneously tagged with both the GST and FLAG tags. […] At these concentrations, protein binding to the acceptor beads has become saturated and free ARNT PAS-B* competes with the coated acceptor beads for the donor beads bound to HIF-2α PAS-B*. […] Assays were performed in triplicate and the error bars represent±SD.

Sequence of HIF-2α PAS-B*/ARNT PAS-B* heterodimer (Q99814 240-350 R247E, one chain of several): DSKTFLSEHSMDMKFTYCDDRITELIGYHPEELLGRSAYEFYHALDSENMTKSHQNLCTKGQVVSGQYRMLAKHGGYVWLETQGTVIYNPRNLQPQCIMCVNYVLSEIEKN
Sequence of HIF-2α PAS-B (Q99814 240-350): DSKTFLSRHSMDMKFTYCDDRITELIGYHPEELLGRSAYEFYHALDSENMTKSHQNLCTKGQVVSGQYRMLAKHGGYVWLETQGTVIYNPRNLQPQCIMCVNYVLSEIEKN

`O=[N+]([O-])c1c(Nc2cccc(Cl)c2)ccc2nonc12` [Compound 5, N-(3-chlorophenyl)-4-nitrobenzo[c][1,2,5]oxadiazol-5-amine] was tested, and the Kd (HIF-2α PAS-B; read-out: ITC Kd) was 160 nM and the IC50 [1] was 180 nM.

`Fc1cc(Cl)cc(Nc2ccc3nonc3c2)c1` [Compound 38] was tested, and the Kd (HIF-2α PAS-B) was about 3000 nM.

With `CNS(=O)(=O)c1c(Nc2cc(F)cc(Cl)c2)ccc2nonc12` [Compound 43] the Kd (HIF-2α PAS-B; read-out: ITC Kd) was 5000 nM.

In the case of `O=[N+]([O-])c1c(NCc2cc(F)cc(Cl)c2)ccc2nonc12` [Compound 21], the Kd (HIF-2α PAS-B; read-out: ITC Kd) is reported as 2000 nM.

In the case of `Brc1cccc([C@@H]2C[C@H](c3cccc(Br)c3)n3nnnc3N2)c1` [Compound 58, (5S,7R)-5,7-bis(3-bromophenyl)-4,5,6,7-tetrahydrotetrazolo[1,5-a]pyrimidine], the Kd (HIF-2α PAS-B) is reported as 89 nM and the IC50 [1] is reported as 100 nM.

`Fc1cc(Br)cc([C@@H]2C[C@H](c3cccc(Br)c3)n3nnnc3N2)c1` [Compound 47, (5S,7R)-5-(3-Bromo-5-fluorophenyl)-7-(3-bromophenyl)-4,5,6,7-tetrahydrotetrazolo[1,5-a]pyrimidine] was tested, and the VEGF protein secretion (VEGF) was “reduce VEGF protein secretion in a dose-dependent manner”, the Kd (HIF-2α PAS-B) was 83 nM and the IC50 [1] was 100 nM.

In the case of `Cc1ccc(CNc2ccc3nonc3c2[N+](=O)[O-])cc1` [Compound 18], the IC50 [1] is reported as over 10000 nM.

`Fc1c(Cl)cccc1[C@@H]1C[C@H](c2cccc(Br)c2)Nc2nnnn21` (racemic) [Compound 59, (+/−)-(cis)-5-(3-bromophenyl)-7-(3-chloro-2-fluorophenyl)-4,5,6,7-tetrahydrotetrazolo[1,5-a]pyrimidine] was tested, and the Kd (HIF-2α PAS-B) was 42 nM and the IC50 [1] was 200 nM.

Work on `O=[N+]([O-])c1c(NCc2ccccc2)ccc2nonc12` [Compound 17] yielded an IC50 [1] of over 5000 nM.

In the case of `Clc1cccc([C@H]2C[C@@H](c3cccc(Br)c3)Nc3nnnn32)c1` [Compound 57], the Kd (HIF-2α PAS-B) is reported as 133 nM and the IC50 [1] is reported as 150 nM.

`Clc1ccccc1[C@H]1C[C@@H](c2cccc(Br)c2)Nc2nnnn21` [Compound 52, (5S,7R)-5-(3-bromophenyl)-7-(2-chlorophenyl)-4,5,6,7-tetrahydrotetrazolo[1,5-a]pyrimidine] showed a Kd (HIF-2α PAS-B) of 337 nM and an IC50 [1] of 300 nM.

Compound `Fc1ccccc1[C@@H]1C[C@H](c2cccc(Br)c2)Nc2nnnn21` (racemic) [Compound 50, (+/−)-(cis)-5-(3-bromophenyl)-7-(2-fluorophenyl)-4,5,6,7-tetrahydrotetrazolo[1,5-a]pyrimidine] has a Kd (HIF-2α PAS-B) of 760 nM and an IC50 [1] of 700 nM.

`Brc1cccc([C@H]2C[C@@H](c3ccccc3Br)n3nnnc3N2)c1` (racemic) [Compound 54, (+/−)-(cis)-7-(2-bromophenyl)-5-(3-bromophenyl)-4,5,6,7-tetrahydrotetrazolo[1,5-a]pyrimidine] was tested, and the Kd (HIF-2α PAS-B) was 565 nM and the IC50 [1] was 200 nM.

`O=[N+]([O-])c1c(NCc2ccc(Cl)cc2)ccc2nonc12` [Compound 19] gave an IC50 [1] of over 5000 nM.

Work on `Clc1ccc(Br)cc1[C@H]1C[C@@H](c2cccc(Br)c2)Nc2nnnn21` [Compound 60, (5S,7R)-7-(5-bromo-2-chlorophenyl)-5-(3-bromophenyl)-4,5,6,7-tetrahydrotetrazolo[1,5-a]pyrimidine] yielded a Kd (HIF-2α PAS-B) of 192 nM and an IC50 [1] of 400 nM.

Work on `Nc1c(Nc2cc(F)cc(Cl)c2)ccc2nonc12` [Compound 39] yielded a Kd (HIF-2α PAS-B) of about 6000 nM and an IC50 [1] of over 30000 nM.

`Fc1c(Br)ccc(Br)c1[C@H]1C[C@@H](c2cccc(Br)c2)Nc2nnnn21` [Compound 63, (5S,7R)-5-(3-bromophenyl)-7-(3,6-dibromo-2-fluorophenyl)-4,5,6,7-tetrahydrotetrazolo[1,5-a]pyrimidine] showed a Kd (HIF-2α PAS-B) of 31 nM and an IC50 [1] of under 10 nM.

For `Brc1cccc([C@H]2C[C@@H](c3ccccc3I)n3nnnc3N2)c1` (racemic) [Compound 55, (+/−)-(cis)-5-(3-bromophenyl)-7-(2-iodophenyl)-4,5,6,7-tetrahydrotetrazolo[1,5-a]pyrimidine], the Kd (HIF-2α PAS-B) was 862 nM and the IC50 [1] was 600 nM.

Work on `O=[N+]([O-])c1c(Nc2ccc(Cl)c(C(F)(F)F)c2)ccc2nonc12` [Compound 9, N-(4-chloro-3-(trifluoromethyl)phenyl)-4-nitrobenzo[c][1,2,5]oxadiazol-5-amine] yielded a Kd (HIF-2α PAS-B) of 260 nM and an IC50 [1] of 90 nM.

Work on `Fc1ccc(Br)c(F)c1[C@H]1C[C@@H](c2cccc(Br)c2)Nc2nnnn21` [Compound 62, (5S,7R)-7-(3-bromo-2,6-difluorophenyl)-5-(3-bromophenyl)-4,5,6,7-tetrahydrotetrazolo[1,5-a]pyrimidine] yielded a Kd (HIF-2α PAS-B) of 44 nM and an IC50 [1] of under 100 nM.

Work on `O=[N+]([O-])c1c(NCc2ccc(F)cc2C(F)(F)F)ccc2nonc12` [Compound 4, N-(4-fluoro-2-(trifluoromethyl)benzyl)-4-nitrobenzo[c][1,2,5]oxadiazol-5-amine] yielded a Kd (HIF-2α PAS-B) of 520 nM and an IC50 [1] of over 30000 nM.

For `O=[N+]([O-])c1c(Nc2cccc(C(F)(F)F)c2)ccc2nonc12` [Compound 6, 4-nitro-N-(3-(trifluoromethyl)phenyl)benzo[c][1,2,5]oxadiazol-5-amine], the Kd (HIF-2α PAS-B; read-out: ITC Kd) was 640 nM and the IC50 [1] was 460 nM.

`O=[N+]([O-])c1c(Nc2cccc(F)c2)ccc2nonc12` [Compound 28] gave a Kd (HIF-2α PAS-B) of 2100 nM.

`O=[N+]([O-])c1c(Nc2ccc(Cl)c(Cl)c2)ccc2nonc12` [Compound 12, N-(3,4-dichlorophenyl)-4-nitrobenzo[c][1,2,5]oxadiazol-5-amine] gave a Kd (HIF-2α PAS-B; read-out: ITC Kd) of 170 nM and an IC50 [1] of 120 nM.

In the case of `O=[N+]([O-])c1c(NCc2ccc(F)cc2Cl)ccc2nonc12` [Compound 2, N-(2-chloro-4-fluorobenzyl)-4-nitrobenzo[c][1,2,5]oxadiazol-5-amine], the Kd (HIF-2α PAS-B; read-out: ITC Kd) is reported as 500 nM and the IC50 [1] is reported as 330 nM.

For `O=[N+]([O-])c1ccccc1Nc1cc(F)cc(Cl)c1` (racemic) [Compound 33], the Kd (HIF-2α PAS-B) was 4300 nM.

`O=[N+]([O-])c1c(Nc2cc(F)cc(F)c2)ccc2nonc12` [Compound 11, N-(3,5-difluorophenyl)-4-nitrobenzo[c][1,2,5]oxadiazol-5-amine] showed a Kd (HIF-2α PAS-B) of 2100 nM and an IC50 [1] of over 1000 nM.

In the case of `O=[N+]([O-])c1cc(Nc2ccc3nonc3c2[N+](=O)[O-])ccc1Cl` [Compound 32], the “Effect on AlphaScreen signal of control reaction” value (GST-ARNT-PAS-B*-FLAG) is reported as “No effect”, the Kd (HIF-2α PAS-B; read-out: ITC Kd) is reported as 1100 nM and the IC50 [1] is reported as 200 nM. The “Effect on HIF-2α/ARNT PAS-B* heterodimerization in AlphaScreen” value ([1]; triplicate) was “antagonizes HIF-2α/ARNT PAS-B* heterodimerization”.

For `O=[N+]([O-])c1c(NCc2cc(F)ccc2F)ccc2nonc12` [Compound 3, N-(2,5-difluorobenzyl)-4-nitrobenzo[c][1,2,5]oxadiazol-5-amine], the Kd (HIF-2α PAS-B) was over 10000 nM and the IC50 [1] was over 10000 nM.

For `O=[N+]([O-])c1c(Nc2ccc(Br)c(F)c2)ccc2nonc12` [Compound 7], the Kd (HIF-2α PAS-B) was 220 nM and the IC50 [1] was 150 nM.

`O=[N+]([O-])c1c(Nc2cc(F)cc(C(F)(F)F)c2)ccc2nonc12` [Compound 10, N-(3-fluoro-5-(trifluoromethyl)phenyl)-4-nitrobenzo[c][1,2,5]oxadiazol-5-amine] showed a Kd (HIF-2α PAS-B; read-out: ITC Kd) of 370 nM and an IC50 [1] of 430 nM.

Work on `Fc1cc(Br)cc([C@@H]2C[C@H](c3ccccc3)n3nnnc3N2)c1` [Compound 49, (5S,7R)-5-(3-bromo-5-fluorophenyl)-7-phenyl-4,5,6,7-tetrahydrotetrazolo[1,5-a]pyrimidine] yielded a Kd (HIF-2α PAS-B) of 268 nM and an IC50 [1] of 350 nM.

`O=[N+]([O-])c1c(NCc2cc(F)ccc2C(F)(F)F)ccc2nonc12` [Compound 22] was tested, and the IC50 [1] was over 30000 nM.

`Fc1ccc(Cl)c(F)c1[C@@H]1C[C@H](c2cccc(Br)c2)Nc2nnnn21` (racemic) [Compound 61, (+/−)-(cis)-5-(3-bromophenyl)-7-(3-chloro-2,6-difluorophenyl)-4,5,6,7-tetrahydrotetrazolo[1,5-a]pyrimidine] was tested, and the Kd (HIF-2α PAS-B) was 32 nM and the IC50 [1] was 200 nM.

Work on `CC(C)C[C@@H]1C[C@H](c2cccc(Br)c2)Nc2nnnn21` (racemic) [Compound 64, (+/−)-(cis)-5-(3-bromophenyl)-7-isobutyl-4,5,6,7-tetrahydrotetrazolo[1,5-a]pyrimidine] yielded a Kd (HIF-2α PAS-B) of 930 nM.

In the case of `O=[N+]([O-])c1cccc(Nc2ccc3nonc3c2[N+](=O)[O-])c1` [Compound 27], the Kd (HIF-2α PAS-B) is reported as 4300 nM.

Compound `COc1cccc(Nc2ccc3nonc3c2[N+](=O)[O-])c1` [Compound 23] has an IC50 [1] of over 10000 nM.

`Clc1cccc([C@@H]2C[C@H](c3cccc(Br)c3)Nc3nnnn32)c1` (racemic) [Compound 56, (+/−)-(cis)-5-(3-bromophenyl)-7-(3-chlorophenyl)-4,5,6,7-tetrahydrotetrazolo[1,5-a]pyrimidine] showed a Kd (HIF-2α PAS-B) of 106 nM and an IC50 [1] of 200 nM.

For `O=[N+]([O-])c1c(Nc2cc(F)cc(Cl)c2)ccc2[nH]cnc12` [Compound 35], the IC50 [1] was over 5000 nM.

`CN(C)S(=O)(=O)c1c(Nc2cc(F)cc(Cl)c2)ccc2nonc12` [Compound 44] showed a Kd (HIF-2α PAS-B; read-out: ITC Kd) of 5000 nM.

`O=[N+]([O-])c1c(Nc2cc(F)cc(Cl)c2)ccc2nn[nH]c12` [Compound 34] showed an IC50 [1] of over 10000 nM.

With `O=[N+]([O-])c1c(Nc2cccc(Cl)c2F)ccc2nonc12` [Compound 8, N-(3-chloro-2-fluorophenyl)-4-nitrobenzo[c][1,2,5]oxadiazol-5-amine] the Kd (HIF-2α PAS-B; read-out: ITC Kd) was 1100 nM and the IC50 [1] was 760 nM.

With `Clc1ccccc1[C@@H]1C[C@H](c2cccc(Br)c2)Nc2nnnn21` (racemic) [Compound 51, (+/−)-(cis)-5-(3-bromophenyl)-7-(2-chlorophenyl)-4,5,6,7-tetrahydrotetrazolo[1,5-a]pyrimidine] the Kd (HIF-2α PAS-B) was 435 nM and the IC50 [1] was 300 nM.
